# System: HOS-FRα tumor-bearing mice
# Test: Toxicity and CRS rescue with sodium fluorescein
# Type: in vivo
# Conditions: sodium fluorescein i.v. ~95 mg/kg, severe CRS, 35 million total CAR-T cells (93:7 CD4/CD8), plasma 6 h later
# Method: Depending on the CAR-T cell dose and how EC17 is administered, tumor-bearing mice receiving FITC-specific CAR-T cells can experience severe CRS and varying degrees of body weight loss ([27], [33], [34]). Therefore, we developed a CRS grading system (0–5 scale) to empirically assess CRS toxicity from animals' gross morphology and social behavior to allow for better timing of CRS rescue. While grades 0 and 5 indicated normal (no CRS) or death (due to severe CRS), respectively, grades 1, 2, and 3–4 were considered mild, light-to-moderate, and severe CRS. In addition, all EC17 doses were intentionally given toward the end of any given day to allow potential CRS symptoms to develop overnight. On the days immediately following each EC17 dose, animals were scored and rescue agents such as sodium fluorescein, folic acid and leucovorin were used to mitigate CRS toxicity ([33]). In this particular instance, a batch of E2-CAR-T cells with a high EGFRt+ CD4/CD8 ratio (~93:7) was given to HOS-FRα tumor-bearing mice at a mixture of ~2.5 million CD8 and ~33 million CD4 on day 0. When EC17 was dosed, respectively, at 500, 100, and 500 nmol/kg on days 3, 10, and 12, low CRS (grades 1–2) was noted on days 4 and 11 but high CRS (grade 3) was noted on day 13. To mitigate the severe CRS toxicity, sodium fluorescein was intravenously administrated at ~96 mg/kg in the morning of day 13 and mouse plasma samples were collected 6 h later for analysis of CRS-associated cytokines.
structure (smiles),measurement,value
"O=C([O-])c1ccccc1-c1c2ccc(=O)cc-2oc2cc([O-])ccc12.[Na+].[Na+] [sodium fluorescein, reference compound]",CAR-T cell derived human cytokines after CRS rescue,acted very quickly to reduce CAR-T cell derived human cytokines
